Experiments:
MLLT3 = MLLT3 (Homo sapiens, UniProt P42568); assay: HTRF IC50 determination assay, MLLT3 / H3K9cro peptide displacement; conditions: MLLT3 assay IC50 (nM), 6His tagged MLLT3, biotinylated H3K9cro peptide, compound 20 μM to 20 nM, 11 data points in duplicate
MLLT1 = MLLT1 (Homo sapiens, UniProt Q03111); assay: biochemical; conditions: MLLT1 assay IC50 (nM), HTRF, 6His tagged MLLT1, biotinylated H3K9cro peptide; compound 20 μM to 20 nM, 11 data points in duplicate
MLLT1, sequence (Q03111 whole entry): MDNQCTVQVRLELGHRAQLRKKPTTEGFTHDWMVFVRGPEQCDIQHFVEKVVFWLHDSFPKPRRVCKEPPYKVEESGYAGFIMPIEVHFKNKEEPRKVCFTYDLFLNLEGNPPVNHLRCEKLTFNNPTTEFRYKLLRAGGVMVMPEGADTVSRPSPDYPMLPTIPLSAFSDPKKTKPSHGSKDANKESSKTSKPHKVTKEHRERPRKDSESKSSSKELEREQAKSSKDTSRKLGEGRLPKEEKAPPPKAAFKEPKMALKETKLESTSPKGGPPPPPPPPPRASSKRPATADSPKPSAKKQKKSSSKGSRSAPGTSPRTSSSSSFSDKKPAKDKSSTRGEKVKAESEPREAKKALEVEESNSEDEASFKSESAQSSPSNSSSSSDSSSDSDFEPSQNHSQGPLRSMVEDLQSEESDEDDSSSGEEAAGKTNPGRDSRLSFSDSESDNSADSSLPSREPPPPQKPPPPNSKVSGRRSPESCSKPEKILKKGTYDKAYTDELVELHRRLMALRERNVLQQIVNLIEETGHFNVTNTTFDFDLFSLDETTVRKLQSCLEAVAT

MLLT3, sequence (P42568 whole entry): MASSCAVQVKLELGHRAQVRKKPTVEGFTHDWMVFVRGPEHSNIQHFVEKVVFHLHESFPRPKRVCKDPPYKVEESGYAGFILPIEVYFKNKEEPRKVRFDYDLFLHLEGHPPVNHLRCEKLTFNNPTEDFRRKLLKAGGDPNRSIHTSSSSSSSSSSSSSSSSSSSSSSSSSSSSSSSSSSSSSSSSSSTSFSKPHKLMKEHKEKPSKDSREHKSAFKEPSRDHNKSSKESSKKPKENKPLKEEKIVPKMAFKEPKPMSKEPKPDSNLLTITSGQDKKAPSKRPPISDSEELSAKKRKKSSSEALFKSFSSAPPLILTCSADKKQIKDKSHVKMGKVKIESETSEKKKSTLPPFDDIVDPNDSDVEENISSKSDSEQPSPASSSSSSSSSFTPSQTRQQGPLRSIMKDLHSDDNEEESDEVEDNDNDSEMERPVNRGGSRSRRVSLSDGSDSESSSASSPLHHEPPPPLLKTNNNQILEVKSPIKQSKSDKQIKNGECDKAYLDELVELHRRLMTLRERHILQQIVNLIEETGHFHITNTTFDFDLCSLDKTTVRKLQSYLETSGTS

| IC50 (MLLT3) | IC50 (MLLT1) | SMILES |
| --- | --- | --- |
| 1500 to 20000 nM | 150 to 1500 nM | CN1CCCC1c1cn2cc(NC(=O)c3ccc(Cn4cccn4)cc3)ccc2n1 (racemic) [Example 42, rac-N-[2-(1-methylpyrrolidin-2-yl)imidazo[1,2-a]pyridin-6-yl]-4-[(1H-pyrazol-1-yl)methyl]benzamide] |
| 1500 to 20000 nM | 150 to 1500 nM | CN1CCCC1c1cn2cc(NC(=O)c3cccc(-n4cccn4)c3)ccc2n1 (racemic) [Example 43, rac-N-[2-(1-methylpyrrolidin-2-yl)imidazo[1,2-a]pyridin-6-yl]-3-(1H-pyrazol-1-yl)benzamide] |
| 1500 to 20000 nM | 1500 to 20000 nM | Cc1c(C(=O)Nc2ccc3nc(C4CCCN4C)cn3c2)sc2nc[nH]c(=O)c12 (racemic) [Example 44, rac-5-methyl-N-[2-(1-methylpyrrolidin-2-yl)imidazo[1,2-a]pyridin-6-yl]-4-oxo-3H,4H-thieno[2,3-d]pyrimidine-6-carboxamide] |
| 150 to 1500 nM | 150 to 1500 nM | CN1CCCC1c1cn2cc(NC(=O)c3ccc4c(c3)nnn4C3CCCCC3)ccc2n1 (racemic) [Example 45, rac-1-cyclohexyl-N-[2-(1-methylpyrrolidin-2-yl)imidazo[1,2-a]pyridin-6-yl]-1H-1,2,3-benzotriazole-5-carboxamide] |
| 1500 to 20000 nM | 1500 to 20000 nM | CN1CCCC1c1cn2cc(NC(=O)c3cnc(-c4ccccc4)o3)ccc2n1 (racemic) [Example 46, rac-N-[2-(1-methylpyrrolidin-2-yl)imidazo[1,2-a]pyridin-6-yl]-2-phenyl-1,3-oxazole-5-carboxamide] |
| 1500 to 20000 nM | 150 to 1500 nM | CN1CCCC1c1cn2cc(NC(=O)c3ccc4cncnc4c3)ccc2n1 (racemic) [Example 47, rac-N-[2-(1-methylpyrrolidin-2-yl)imidazo[1,2-a]pyridin-6-yl]quinazoline-7-carboxamide] |
| 150 to 1500 nM | 150 to 1500 nM | CN1CCCC1c1cn2cc(NC(=O)c3ccc4c(c3)c(C3CCCC3)nn4C)ccc2n1 (racemic) [Example 48, rac-3-cyclopentyl-1-methyl-N-[2-(1-methylpyrrolidin-2-yl)imidazo[1,2-a]pyridin-6-yl]-1H-indazole-5-carboxamide] |
| 150 to 1500 nM | 150 to 1500 nM | COCCc1nn(C)c2ccc(C(=O)Nc3ccc4nc(C5CCCN5C)cn4c3)cc12 (racemic) [Example 49, rac-3-(2-methoxyethyl)-1-methyl-N-[2-(1-methylpyrrolidin-2-yl)imidazo[1,2-a]pyridin-6-yl]-1 H-indazole-5-carboxamide] |
| 1500 to 20000 nM | 1500 to 20000 nM | Cc1noc2nc(C(=O)Nc3ccc4nc(C5CCCN5C)cn4c3)ccc12 (racemic) [Example 50, rac-3-methyl-N-[2-(1-methylpyrrolidin-2-yl)imidazo[1,2-a]pyridin-6-yl]-[1,2]oxazolo[5,4-b]pyridine-6-carboxamide] |
| 1500 to 20000 nM | 150 to 1500 nM | CN1CCCC1c1cn2cc(NC(=O)c3ccc(-c4ncon4)cc3)ccc2n1 (racemic) [Example 51, rac-N-[2-(1-methylpyrrolidin-2-yl)imidazo[1,2-a]pyridin-6-yl]-4-(1,2,4-oxadiazol-3-yl)benzamide] |
| > 20000 nM | 1500 to 20000 nM | CN1CCCC1c1cn2cc(NC(=O)c3ccc4c(cnn4C)c3Cl)ccc2n1 (racemic) [Example 52, rac-4-chloro-1-methyl-N-[2-(1-methylpyrrolidin-2-yl)imidazo[1,2-a]pyridin-6-yl]-1H-indazole-5-carboxamide] |
| 150 to 1500 nM | 150 to 1500 nM | CN1CCCC1c1cn2cc(NC(=O)c3ccc4[nH]ccc4c3F)ccc2n1 (racemic) [Example 53, rac-4-fluoro-N-[2-(1-methylpyrrolidin-2-yl)imidazo[1,2-a]pyridin-6-yl]-1H-indole-5-carboxamide] |
| 1500 to 20000 nM | 150 to 1500 nM | CN1CCCC1c1cn2cc(NC(=O)c3cc4ccncc4o3)ccc2n1 (racemic) [Example 54, rac-N-[2-(1-methylpyrrolidin-2-yl)imidazo[1,2-a]pyridin-6-yl]furo[2,3-c]pyridine-2-carboxamide] |
